Measured values published in ChEMBL document CHEMBL3885881, “DrugMatrix”.

Species: Rattus norvegicus
Experiment: DrugMatrix - Regimen: Daily Repeat
Format: toxicity, organism-based, Sprague-Dawley
Set-up: regimen Daily Repeat, gender Male, age 6-8 weeks
Settings: in vivo, po, route oral GAVAGE, vehicle 100 % WATER; for ABSOLUTE BASOPHIL / ABSOLUTE EOSINOPHIL / ABSOLUTE LYMPHOCYTE / ABSOLUTE MONOCYTE / ABSOLUTE SEGMENTED NEUTROPHIL / BASOPHIL / EOSINOPHIL / ERYTHROCYTE COUNT / HEMATOCRIT / HEMOGLOBIN / LEUKOCYTE COUNT / LYMPHOCYTE / MEAN CORPUSCULAR HEMOGLOBIN / MEAN CORPUSCULAR HEMOGLOBIN CONCENTRATION / MEAN CORPUSCULAR VOLUME / MONOCYTE / NEUTROPHIL / NUCLEATED RED BLOOD CELLS: tissue Blood; for ALANINE AMINOTRANSFERASE / ALKALINE PHOSPHATASE / ASPARTATE AMINOTRANSFERASE / BLOOD UREA NITROGEN / CARBON DIOXIDE / CHLORIDE / CHOLESTEROL / CREATINE PHOSPHOKINASE / CREATININE / GLUCOSE / LACTATE DEHYDROGENASE / LIPASE / PHOSPHORUS / POTASSIUM / SODIUM / TOTAL BILIRUBIN / TOTAL PROTEIN / URIC ACID: tissue Plasma
[1] = 0 mg/kg, 72 h, dose level Control, time 3 day
[2] = 0 mg/kg, 120 h, dose level Control, time 5 day
[3] = 18 mg/kg, 72 h, dose level Low, time 3 day

## CN(C)CCCN1c2ccccc2Sc2ccc(Cl)cc21 [CHLORPROMAZINE]
[1]
  ABSOLUTE BASOPHIL: 0 CELLS/uL
  ABSOLUTE EOSINOPHIL: 108.67 CELLS/uL
  ABSOLUTE LYMPHOCYTE: 10696 CELLS/uL
  ABSOLUTE MONOCYTE: 216.67 CELLS/uL
  ABSOLUTE SEGMENTED NEUTROPHIL: 1045.33 CELLS/uL
  BASOPHIL: 0%
  EOSINOPHIL: 1%
  ERYTHROCYTE COUNT: 5.87 x10E6/uL
  HEMATOCRIT: 38.5%
  HEMOGLOBIN: 13.6 G/DL
  LEUKOCYTE COUNT: 12.07 x10E3/uL
  LYMPHOCYTE: 88.33%
  MEAN CORPUSCULAR HEMOGLOBIN: 23.47 pg
  MEAN CORPUSCULAR HEMOGLOBIN CONCENTRATION: 35.7 G/DL
  MEAN CORPUSCULAR VOLUME: 65.63 fL
  MONOCYTE: 2%
  NEUTROPHIL: 8.67%
  NUCLEATED RED BLOOD CELLS: 0 /100WBC
  ALANINE AMINOTRANSFERASE: 60.67 u/L
  ALKALINE PHOSPHATASE: 377.67 u/L
  ASPARTATE AMINOTRANSFERASE: 85.33 u/L
  BLOOD UREA NITROGEN: 15 mg/dL
  CARBON DIOXIDE: 37 mmol/L
  CHLORIDE: 97.67 MEQ/L
  CHOLESTEROL: 70.67 mg/dL
  CREATINE PHOSPHOKINASE: 361.67 u/L
  CREATININE: 0.18 mg/dL
  GLUCOSE: 154 mg/dL
  LACTATE DEHYDROGENASE: 99 u/L
  LIPASE: 12.67 u/L
  PHOSPHORUS: 9.53 mg/dL
  POTASSIUM: 5.55 MEQ/L
  SODIUM: 143.1 MEQ/L
  TOTAL BILIRUBIN: 0.2 mg/dL
  TOTAL PROTEIN: 5.97 G/DL
  URIC ACID: 0.77 mg/dL
[2]
  ABSOLUTE BASOPHIL: 0 CELLS/uL
  ABSOLUTE EOSINOPHIL: 0 CELLS/uL
  ABSOLUTE LYMPHOCYTE: 9535 CELLS/uL
  ABSOLUTE MONOCYTE: 182 CELLS/uL
  ABSOLUTE SEGMENTED NEUTROPHIL: 783 CELLS/uL
  BASOPHIL: 0%
  EOSINOPHIL: 0%
  ERYTHROCYTE COUNT: 5.35 x10E6/uL
  HEMATOCRIT: 34.17%
  HEMOGLOBIN: 13.17 G/DL
  LEUKOCYTE COUNT: 10.5 x10E3/uL
  LYMPHOCYTE: 89.67%
  MEAN CORPUSCULAR HEMOGLOBIN: 24.67 pg
  MEAN CORPUSCULAR HEMOGLOBIN CONCENTRATION: 38.57 G/DL
  MEAN CORPUSCULAR VOLUME: 63.9 fL
  MONOCYTE: 1.67%
  NEUTROPHIL: 8.67%
  NUCLEATED RED BLOOD CELLS: 0 /100WBC
  ALANINE AMINOTRANSFERASE: 46.67 u/L
  ALKALINE PHOSPHATASE: 343.67 u/L
  ASPARTATE AMINOTRANSFERASE: 71 u/L
  BLOOD UREA NITROGEN: 11.67 mg/dL
  CARBON DIOXIDE: 27 mmol/L
  CHLORIDE: 105.33 MEQ/L
  CHOLESTEROL: 70.67 mg/dL
  CREATINE PHOSPHOKINASE: 208.67 u/L
  CREATININE: 0.1 mg/dL
  GLUCOSE: 161.33 mg/dL
  LACTATE DEHYDROGENASE: 58 u/L
  LIPASE: 9.33 u/L
  PHOSPHORUS: 12.7 mg/dL
  POTASSIUM: 5.59 MEQ/L
  SODIUM: 147.1 MEQ/L
  TOTAL BILIRUBIN: 0.17 mg/dL
  TOTAL PROTEIN: 5.97 G/DL
  URIC ACID: 0.73 mg/dL
[3]
  ABSOLUTE BASOPHIL: 0 CELLS/uL
  ABSOLUTE EOSINOPHIL: 0 CELLS/uL
  ABSOLUTE LYMPHOCYTE: 8093.33 CELLS/uL
  ABSOLUTE MONOCYTE: 80.67 CELLS/uL
  ABSOLUTE SEGMENTED NEUTROPHIL: 392.67 CELLS/uL
  BASOPHIL: 0%
  EOSINOPHIL: 0%
  ERYTHROCYTE COUNT: 5.16 x10E6/uL
  HEMATOCRIT: 34.47%
  HEMOGLOBIN: 13.4 G/DL
  LEUKOCYTE COUNT: 8.57 x10E3/uL
  LYMPHOCYTE: 94.33%
  MEAN CORPUSCULAR HEMOGLOBIN: 25.97 pg
  MEAN CORPUSCULAR HEMOGLOBIN CONCENTRATION: 38.87 G/DL
  MEAN CORPUSCULAR VOLUME: 66.8 fL
  MONOCYTE: 1%
  NEUTROPHIL: 4.67%
  NUCLEATED RED BLOOD CELLS: 0 /100WBC
  ALANINE AMINOTRANSFERASE: 60.67 u/L
  ALKALINE PHOSPHATASE: 286 u/L
  ASPARTATE AMINOTRANSFERASE: 101 u/L
  BLOOD UREA NITROGEN: 15 mg/dL
  CARBON DIOXIDE: 38 mmol/L
  CHLORIDE: 98 MEQ/L
  CHOLESTEROL: 65.67 mg/dL
  CREATINE PHOSPHOKINASE: 499.33 u/L
  CREATININE: 0.32 mg/dL
  GLUCOSE: 131 mg/dL
  LACTATE DEHYDROGENASE: 79 u/L
  LIPASE: 10 u/L
  PHOSPHORUS: 8.37 mg/dL
  POTASSIUM: 5.57 MEQ/L
  SODIUM: 142.3 MEQ/L
  TOTAL BILIRUBIN: 0.23 mg/dL
  TOTAL PROTEIN: 5.97 G/DL
